# Results taken from patent publication US8946201B2, “Methods for inhibiting TGF-β” (Saint Louis University, priority 2007, dated 2015).
# Key:
# [1] = tested on: TβR-II; test: TGF-β1-induced degradation of TβR-II, Western blot; type: cell-based; details: 1% β-CD
# Description: (E) Cells were treated with several concentrations of cholesterol (a,b) or LDL (c,d) as indicated in the presence and absence of 1% β-CD at 37° C. for 1 hr and further incubated with 50 pM TGF-β for 1 hr. The cell lysates were then subjected to 7.5% SDS-PAGE and Western blot analysis using antibodies to TβR-II and α-actin (a,c). The relative intensities of TβR-II and α-actin on the blot were quantified by densitometry (b,d). The ratio of the relative intensities of TβR-II and α-actin in cells treated without TGF-β1 was taken as the 100% level of TβR-II.
# (F, G) Cells were treated with or without 1 μM lovastatin/fluvastatin or nystatin (25 μg/ml)/cholesterol (50 μg/ml) at 37° C. for 16 hr or 1 hr, respectively. The treated cells were directly analyzed by sucrose density gradient ultracentrifugation analysis (F) or further incubated with 50 pM TGF-β at 37° C. for several time periods as indicated (G). Western blot analysis of the sucrose density gradient fractions (F) and of TGF-β1-treated cell lysates (G) was performed using antibody to TβR-II. The relative levels of TβR-II and α-actin were quantified by densitometry. Fractions ⅘ and 7 represent lipid raft/caveolae and non-lipid raft fractions, respectively. […] The quantitative data from three independent analyses is shown (G, bottom). […]
# Cells grown to near confluence on 12-well cluster dishes were treated with cholesterol or LDL in serum-free DMEM (vol.=0.5 ml/well) at 37° C. for 1 hr. […] Treated cells were lysed and cell lysates were analyzed by 7.5% SDS-PAGE and Western blot analysis using anti-Smad2, anti-P-Smad2, anti-caveolin-1, anti-TβR-I (alk5) or anti-TβR-II antibodies as described previously (30). […]
# Lipid raft/caveolae-mediated endocytosis of receptor-bound TGF-β results in rapid degradation of TGF-β1 and suppression of TGF-β responsiveness. […] To test this, we analyzed the lipid raft/caveolae and non-lipid raft localization of TβR-I and TβR-II in the plasma membrane of cells treated with or without cholesterol (50 μg/ml) using sucrose density gradient ultracentrifugation analysis. […]
# [2] = tested on: TβR-I and TβR-II; test: 125I-TGF-β1 affinity labeling, Mv1Lu cells; type: cell-based, mink; details: for effect on the LDL- or cholesterol-induced increase of 125I-TGF-β1 binding to TβR-I: co-treatment, β-CD 8 mM, nystatin 25 μg/ml, cholest-4-en-3-one 50 μg/ml (FIG. 4B, C)
# Description: (A) Mv1Lu cells were treated with 50 μg/ml cholesterol at 37° C. After several time periods, as indicated, ^125I-TGF-β1-affinity labeling was performed at 0° C. ^125I-TGF-β1 affinity-labeled TGF-β receptors were analyzed by 7.5% SDS-PAGE and autoradiography (a) and quantified with a PhosphoImager. The bracket indicates the locations of ^125I-TGF-β1 affinity-labeled TβR-I and TβR-II. The ratio of ^125I-TGF-β1 binding to TβR-II and TβR-I is plotted against incubation time (b).
# (B, C, D, E) Cells were treated with increasing concentrations of cholesterol in the presence (C) and absence (B, D, E) of 0.2% β-CD, as indicated. After 1 hr at 37° C., ^125I-TGF-β1 affinity labeling of TβR-I and TβR-II in cells was performed at 0° C. ^125I-TGF-β1 affinity-labeled TβR-I and TβR-II were analyzed by 7.5% SDS-PAGE and autoradiography or quantified with a PhosphoImager. A representative of a total of three analyses is shown (top). The bracket indicates the locations of ^125I-TGF-β affinity-labeled TβR-I and TβR-II. The relative intensities of ^125I-TGF-β1 affinity-labeled TβR-I and TβR-II in cells treated without cholesterol were taken as 100%. The quantitative data from three analyses is shown (bottom).
# The bracket indicates the locations of ^125I-TGF-β1 affinity-labeled TβR-I and TβR-II. The relative intensities of ^125I-TGF-β1-TβR-I and ^125I-TGF-β1-TβR-II complexes, which were quantified with a PhosphoImager, are plotted against TGF-β1 concentrations (bottom).
# (A, B, C, D, E, F) Cells were treated with LDL (50 μg protein/ml), VLDL (5 μg protein/ml), HDL (50 μg protein/ml), lipoprotein (a) (10 μg/ml), fluvastatin (F; 1 μM), lovastatin (L; 1 μM), nystatin (Nys; 25 μg/ml), β-CD (β-CD; 8 mM), cholest-4-en-3-one (3-one; 50 μg/ml) or cholesterol (Chol; 50 μg/ml) alone or combination of two. After 1 hr at 37° C. or 16 hr at 37° C. (for fluvastatin and lovastatin), ^125I-TGF-β1 affinity labeling of cell-surface TGF-β receptors was performed at 0° C. ^125I-TGF-β1 affinity-labeled TβR-I and TβR-II were analyzed by 7.5% SDS-PAGE and autoradiography. The relative intensities of TβR-I and TβR-II were quantified with a PhosphoImager. The ratio of ^125I-TGF-β1 binding to TβR-II and TβR-I were estimated. The numbers above the lane sequence denote the ratio of TβR-II/TβR-I.
# (G) Mv1Lu cells were treated with 50 μg/ml of cholesterol and cholesterol analogs/derivatives including 25-hydroxycholesterol, 7-dehydrocholesterol (7-DHC), 7-ketocholesterol, 7β, 8β-epoxycholesterol, 7β-hydroxycholesterol, and oxidized 7-dehydrocholesterol (oxy-7DHC). After 1 hr at 37° C., ^125I-TGF-β1 affinity labeling of TGF-β receptors was performed. ^125I-TGF-β1 affinity-labeled TβR-I and TβR-II were analyzed by 7.5% SDS-PAGE and autoradiography. The bracket indicates the locations of ^125I-TGF-β1-affinity-labeled TβR-I and TβR-II. The relative intensities of ^125I-TGF-β1 affinity-labeled TβR-I and TβR-II were determined by a PhosphoImager. The ratios of ^125I-TGF-β1 binding to TβR-II and TβR-I were estimated. The numbers above the lane sequence denote the ratio of TβR-II/TβR-I.
# After cross-linking, cell lysates were analyzed by 7.5% SDS-PAGE and autoradiography or quantified by a PhosphoImager. For all experiments, cholesterol or cholesterol derivatives were prepared as the stock solution with a concentration of 25 mg/ml in ethanol. The final concentration of ethanol in the medium was 0.2% (by vol.).
# [3] = tested on: Mv1Lu cells; test: [Methyl-3H]thymidine incorporation (DNA synthesis), Mv1Lu cells; type: cell-based, mink; details: 18 hr
# Description: (A, B, C, D, E, F) Cells were treated with 50 μg/ml cholesterol (A, B, C, D) and 50 μg/ml LDL (D) at 37° C. for 1 hr or with 1 μM fluvastatin or lovastatin (E) or several concentrations of fluvastatin (F) at 37° C. for 16 hr and then further incubated with increasing concentrations (as indicated) of TGF-β1 (A, B, C, E) or 50 pM TGF-β1 (D,F) for 2 hr. Northern blot analysis of PAI-1 and G3PDH was performed. A representative of a total of three analyses is shown (a). The relative intensities of the transcripts were quantified with a PhosphoImager. The ratio of the relative intensities of PAI-1 and G3PDH transcripts in cells treated without TGF-β1 and cholesterol, LDL or statins on the blot was taken as 1 fold or 100% of PAI-1 expression. The quantitative data from three independent analyses is shown (b). […] (G) Mv1Lu cells stably expressing a luciferase reporter gene driven by the PAI-1 promoter (MLECs-clone 32) were treated with increasing concentrations (as indicated) of cholesterol at 37 EC for 1 hr (a) or with 1 μM lovastatin at 37° C. for 16 hr (b) and then further incubated with 50 pM TGF-β for 7 hr. The luciferase activity in cells treated without cholesterol was taken as 100% (a). […] (H) Cells were incubated with 0.0625 and 0.125 pM TGF-β1 in the presence of increasing concentrations of cholesterol, as indicated. After 18 hr at 37° C., cell growth was determined by measurement of [^3H-methyl]thymidine incorporation into cellular DNA (a). The [^3H-methyl]thymidine incorporation in cells treated with vehicle only (T1); with TGF-β1 (T2); with cholesterol (T3); with cholesterol and TGF-β1 (T4) was measured. T1 was taken as 100%. The degree (%) of cholesterol-mediated reversal of TGF-β1 growth inhibition was estimated by the equation: % reversal=[1−(T3−T4/T1−T2)]×100 Cholesterol appeared to reverse TGF-β1 growth inhibition in a dose-dependent manner (b). The experiments were carried out in triplicate.
# The growth of cholesterol-treated cells was determined by measurement of [methyl-^3H]thymidine incorporation into cellular DNA as described (30). Briefly, cells grown near confluence on 48-well clustered dishes were treated with several concentrations of cholesterol at 37° C. for 1 hr in serum-free DMEM. The final concentration of ethanol (the vehicle for cholesterol) in the medium was 0.2%. […] The [methyl-^3H]thymidine incorporation into cellular DNA was then determined by incubation of cells with [methyl-^3H]thymidine at 37° C. for 2 hr in DMEM containing 0.1% fetal calf serum. […]
# Another prominent biological activity of TGF-β is growth inhibition of many different cell types. […] DNA synthesis was then determined by measurement of [^3H-methyl]thymidine incorporation into cellular DNA (FIG. 2Ha). […]
Molecule,effect on the cholesterol-enhanced TGF-β1-induced degradation of TβR-II [1],effect on the LDL- or cholesterol-induced increase of 125I-TGF-β1 binding to TβR-I [2],"half-maximum concentrations of binding to TβR-I and TβR-II ([2]; Mv1Lu cells treated with and without cholesterol, 0° C. 2.5 hr)","Kd ([2]; stated identical to the half-maximum concentration, read-out: apparent Kd of binding to the TGF-β receptors)",inhibition of DNA synthesis ([3]; 0.0625 pM),inhibition of DNA synthesis ([3]; 0.125 pM)
"OC[C@H]1O[C@@H]2O[C@H]3[C@H](O)[C@@H](O)[C@@H](O[C@H]4[C@H](O)[C@@H](O)[C@@H](O[C@H]5[C@H](O)[C@@H](O)[C@@H](O[C@H]6[C@H](O)[C@@H](O)[C@@H](O[C@H]7[C@H](O)[C@@H](O)[C@@H](O[C@H]8[C@H](O)[C@@H](O)[C@@H](O[C@H]1[C@H](O)[C@H]2O)O[C@@H]8CO)O[C@@H]7CO)O[C@@H]6CO)O[C@@H]5CO)O[C@@H]4CO)O[C@@H]3CO [β-CD, β-cyclodextrin, reference compound]",abolished,abolished,–,–,–,–
"TGF-β1: transforming growth factor-beta 1, 25-kDa dimeric cytokine; also used 125I-labelled",–,–,50 to 80 pM,0.05 to 0.08 nM,~30%,~40%
"CC(C)CCC[C@@H](C)[C@H]1CC[C@H]2[C@@H]3CCC4=CC(=O)CC[C@]4(C)[C@H]3CC[C@]12C [4-cholesten-3-one, reference compound]",–,abolished,–,–,–,–
